Measured values reported in PMC7157825, “Romo1-Derived Antimicrobial Peptide Is a New Antimicrobial Agent against Multidrug-Resistant Bacteria in a Murine Model of Sepsis” (mBio, 2020).
Where no end group is shown, it is not given here.

How the values were obtained:
S. aureus (ATCC 29213) [1] = format: cell-based, Staphylococcus aureus; settings: ATCC 29213, 1 h, pH 7.4
Description: (§1) The minimum bactericidal concentration was determined as previously described with minor modifications ([29]). Briefly, bacteria (5 × 10^5 CFU/ml) in 10 mM phosphate buffer (pH 7.4) with a 1% volume of TS broth were incubated with various peptide dilutions in a 96-well plate. After incubation for 1 h, samples were placed on TS agar plates and incubated overnight at 37°C. The peptide concentration at which no colonies were identified on the plate was determined to be the MBC.

[2] = test system: P. aeruginosa (ATCC 27853); format: cell-based, Pseudomonas aeruginosa; settings: ATCC 27853, 1 h, pH 7.4
Description: as §1

C57BL/6 mouse = assay: Single-dose safety in mice; settings: single dose 100 mg/kg intravenously; tracked for 15 days; compared to PBS
CRAB = assay: Murine model of sepsis caused by MDR bacteria; format: in vivo, mouse; settings: 5 × 10^8 CFU iv; AMPR-11 10 mg/kg iv single dose; imipenem 10 mg/kg ip four times q12h; 15 mice/group
GFP-expressing EIEC = assay: GFP efflux / permeabilization of GFP-expressing EIEC; format: cell-based, Enteroinvasive Escherichia coli
Description: Flow cytometric assay to measure the efflux of GFP from GFP-expressing EIEC was performed using a FACS Canto II (Biosciences, CA). […] The number of internalized EIEC in HeLa cells (pcDNA 3.1 or pcDNA 3.1-Flag-Romo1/Control siRNA, Romo1 siRNA-1, or Romo1 siRNA-2) was measured using CFDA-stained EIEC. The data were measured and analyzed with FlowJo software (Tree Star, Inc., Ashland, OR).

CRPA = assay: Murine model of sepsis caused by MDR bacteria; format: in vivo, mouse; settings: for increase of survival rate: 8 × 10^7 CFU iv, AMPR-11 10 mg/kg iv single dose, imipenem 10 mg/kg ip four times q12h, 15 mice/group
[3] = test system: Vancomycin-resistant S. aureus; format: cell-based, Staphylococcus aureus; settings: 1 h, pH 7.4
Description: as §1

[4] = Functional half-life of antimicrobial activity in human serum; format: in vitro ADME; settings: human serum (H4522; Sigma-Aldrich); pre-incubation 0, 5, 15, 30, 45, 60, or 75 min, then P. aeruginosa or S. aureus for 1 h; read-out CFU assay (antimicrobial activity)
[5] = CF release from CF-encapsulated large unilamellar vesicles; settings: 1 μg/ml of peptide; fluorescence; compared with melittin, magainin 2, daptomycin
Description: Portions (10 μl) of the lipid mixture of E. coli total lipid extract were dried and rehydrated with 50 mM CF, 100 mM sucrose, and 5 mM HEPES/KOH (pH 7.4). Multilamellar liposomal suspensions were extruded with a 0.1-μm polycarbonate membrane using an Avanti Mini Extruder and purified by a PD-10 column (GE Healthcare, Buckinghamshire, United Kingdom) as previously described. The peptides were added to LUVs, and CF leakage was measured using Fluroskan Ascent FL (Thermo Labsystems, UK) in external buffer (150 mM KCl and 10 mM HEPES/Tris; pH 7). CF leakage was calculated using the following formula: CF leakage (%) = 100 × (F – F0)/(Fmax – F0), where F is the measured fluorescence intensity, F0 is the basal LUV fluorescence intensity, and Fmax is the fluorescence intensity of LUVs treated with 0.2% Triton X-100.

MRSA = assay: Murine model of sepsis caused by MDR bacteria; format: in vivo, mouse; settings: for increase of survival rate: 3 × 10^8 CFU iv, AMPR-11 10 mg/kg iv single dose, imipenem 10 mg/kg ip four times q12h, 15 mice/group
[6] = Functional half-life of antimicrobial activity in mouse plasma; format: in vitro ADME; settings: 75% PBS and 25% mouse plasma (EDTA separation); pre-incubation 0, 5, 15, 30, 45, 60, or 75 min, then P. aeruginosa or S. aureus for 1 h; read-out CFU assay (antimicrobial activity)
S. aureus (ATCC 29213) [7] = assay: Murine model of sepsis; format: in vivo, mouse
[8] = test system: Vancomycin-resistant E. faecium; format: cell-based, Enterococcus faecium; settings: 1 h, pH 7.4
Description: as §1

[9] = test system: K. pneumoniae (ATCC 13883); assay: Murine model of sepsis; format: in vivo, mouse
Mouse RBCs = format: cell-based
Description: Mouse RBCs were rinsed several times with PBS and centrifuged for 10 min at 2,000 rpm. […] After incubating for 1 h, the cells were pelleted at 1,000 × g for 10 min, and the absorbance of the supernatant was measured at 570 nm. The OD of the control was that of PBS (blank), and 1% Triton X-100 was used as the positive control.

[10] = test system: P. aeruginosa (ATCC 27853); assay: Murine model of sepsis; format: in vivo, mouse
[11] = test system: A. baumannii (ATCC 19606); assay: Murine model of sepsis; format: in vivo, mouse
[12] = Protein lipid overlay (PLO) assay; format: binding; settings: TAMRA-AMPR-11 2 μg/ml, 2 h; 20 pmol of each lipid (PC, PG, PS, PE, PA, PI, lipid A, CL) on nitrocellulose
Description: The experiment was performed as previously described ([53]) with minor modifications. The lipid of PC, PG, PS, PE, PA, PI, lipid A, or CL was diluted and placed on the supported nitrocellulose membrane at 20 pmol and dried at room temperature. The membrane was blocked with Tris-buffered saline-Tween 20 (TBS-Tween 20, 50 mM Tris-HCl, 150 mM NaCl, and 0.1% Tween 20) containing 0.2% fatty acid-free bovine albumin for 1 h. After several washes in TBS, the membrane was incubated with TAMRA-AMPR-11 at 2 μg/ml in blocking solution for 2 h. After several washes with TBS-Tween 20, the fluorescent signal was detected using a fluorescent image scanner (Typhoon FLA 9500).

CRKP = assay: Murine model of sepsis caused by MDR bacteria; format: in vivo, mouse; settings: 8 × 10^8 CFU iv; AMPR-11 10 mg/kg iv single dose; imipenem 10 mg/kg ip four times q12h; 15 mice/group
S. pneumoniae = format: cell-based; settings: 1 h, pH 7.4
Description: as §1

[13] = Effect of blood components on antimicrobial activity; format: in vitro ADME; settings: mouse RBCs, human LDL, human HDL, bovine serum albumin; incubated for indicated times, then bacteria 1 h; CFU assay
EIEC = EIEC growth by spectrophotometry; format: cell-based, Enteroinvasive Escherichia coli; settings: 1 μg/ml of Romo1 protein
[14] = peptides iv 1 h after infection, tail vein blood 1 h after peptide administration
[15] = mouse blood after 48 h of infection, 10 mg/kg iv single dose

## MMQSGGTFGTFMAIGMGIR [M60-R78]
S. aureus (ATCC 29213) [1]
  MBC value S. aureus: 300 mg/L
[2]
  MBC value P. aeruginosa: 300 mg/L

## KTMMQSGGTFGTFMAIGM [K58-M75]
S. aureus (ATCC 29213) [1]
  MBC value S. aureus: 300 mg/L
[2]
  MBC value P. aeruginosa: 300 mg/L

## IGKTMMQSGGTFGTFMAIGMGIRC [I56-C79]
S. aureus (ATCC 29213) [1]
  MBC value S. aureus: 300 mg/L
[2]
  MBC value P. aeruginosa: 300 mg/L

## KTMMQSGGTFGTFMAIGMGIR [AMPR-11]
C57BL/6 mouse
  clinical signs (death, weight loss): no severe clinical signs such as death or weight loss
CRAB
  increase of survival rate: > 60%
GFP-expressing EIEC; Fig. 2E, TAMRA-AMPR-11 with GFP-expressing EIEC
  time to kill bacteria: ≤ 10 min
CRPA
  increase of survival rate: > 60%
CRPA; [14]
  antimicrobial activity in blood (CFU counts) compared with known AMPs: statistically better than that of magainin 2, LL-37, or daptomycin
[3]
  MBC value Vancomycin-resistant S. aureus: 120 mg/L
[4]
  functional half-life in serum: ~40 min
[5]
  CF release: to a similar extent as melittin
MRSA
  increase of survival rate: > 60%
MRSA; CFU assay of organ homogenates, 10 mg/kg iv single dose
  bacterial load in the liver, spleen, and kidney: decrease in bacterial load in the liver, spleen, and kidney
MRSA; [14]
  antimicrobial activity in blood (CFU counts) compared with known AMPs: statistically better than that of magainin 2, LL-37, or daptomycin
[6]
  functional half-life in plasma: approximately 50 min
S. aureus (ATCC 29213) [7]; AMPR-11 administered immediately after infection, tail vein blood, CFU relative to PBS group
  bacterial load in blood over time: rapidly decreased the bacterial load in blood
S. aureus (ATCC 29213) [7]; C57BL/6N mice, 1 × 10^8 CFU iv, AMPR-11 10 mg/kg iv single dose 1 h after infection, 20 mice/group, 15 days
  increase of survival rate: > 60%
S. aureus (ATCC 29213) [7]; [15]
  bacterial load in blood: decrease in the bacterial load in blood
[8]
  MBC value Vancomycin-resistant E. faecium: 100 mg/L
[9]; C57BL/6N mice, 8 × 10^8 CFU iv, AMPR-11 10 mg/kg iv single dose 1 h after infection, 15 mice/group, 15 days
  increase of survival rate: > 60%
[9]; [15]
  bacterial load in blood: decrease in the bacterial load in blood
Mouse RBCs
  hemolytic activity: less cytotoxicity (Fig. 4A) and hemolytic activity (Fig. 4B) than magainin 2 and daptomycin
[10]; C57BL/6N mice, 2 × 10^7 CFU iv, AMPR-11 10 mg/kg iv single dose 1 h after infection, 20 mice/group, 15 days
  increase of survival rate: > 60%
[10]; [15]
  bacterial load in blood: decrease in the bacterial load in blood
[11]; C57BL/6N mice, 4 × 10^8 CFU iv, AMPR-11 10 mg/kg iv single dose 1 h after infection, 15 mice/group, 15 days
  increase of survival rate: > 60%
[11]; [15]
  bacterial load in blood: decrease in the bacterial load in blood
[12]
  lipid preference (binding): specifically bound to lipid A and cardiolipin (CL)
CRKP
  increase of survival rate: > 60%
S. pneumoniae
  MBC value S. pneumoniae: 100 mg/L
[13]
  antimicrobial activity after incubation with blood components: not inhibited by RBCs, LDL, HDL, or albumin

## KTMMQSGGTFGTFMAIGMGIRC [K58-C79]
S. aureus (ATCC 29213) [1]
  MBC value S. aureus: 150 mg/L
[2]
  MBC value P. aeruginosa: 130 mg/L

## GGIGKTMMQSGGTFGTFMAIGMGIRC [G54-C79]
S. aureus (ATCC 29213) [1]
  MBC value S. aureus: 300 mg/L
[2]
  MBC value P. aeruginosa: 300 mg/L

## GKTMMQSGGTFGTFMAIGMGIR [G57-R78]
S. aureus (ATCC 29213) [1]
  MBC value S. aureus: 300 mg/L
[2]
  MBC value P. aeruginosa: 280 mg/L

## C[C@@H](O)[C@H]1C(=O)N2C(C(=O)O)=C(SCCN=CN)C[C@H]12 [imipenem, reference compound]
CRAB
  increase of survival rate: of little effectiveness
CRPA
  increase of survival rate: of little effectiveness
MRSA
  increase of survival rate: of little effectiveness
CRKP
  increase of survival rate: of little effectiveness

## IGKTMMQSGGTFGTFMAIGMGIR [I56-R78]
S. aureus (ATCC 29213) [1]
  MBC value S. aureus: 300 mg/L
[2]
  MBC value P. aeruginosa: 300 mg/L

## LMGGIGKTMMQSGGTFGTFMAIGMGIR [L52-R78]
S. aureus (ATCC 29213) [1]
  MBC value S. aureus: 300 mg/L
[2]
  MBC value P. aeruginosa: 300 mg/L

## GKTMMQSGGTFGTFMAIGMGIRC [G57-C79]
S. aureus (ATCC 29213) [1]
  MBC value S. aureus: 280 mg/L
[2]
  MBC value P. aeruginosa: 250 mg/L

## KTMMQSGGTFGTFMAIGMGI [K58-I77]
S. aureus (ATCC 29213) [1]
  MBC value S. aureus: 300 mg/L
[2]
  MBC value P. aeruginosa: 300 mg/L

## LMGGIGKTMMQSGGTFGTFMAIGMGIRC [L52-C79]
S. aureus (ATCC 29213) [1]
  MBC value S. aureus: 300 mg/L
[2]
  MBC value P. aeruginosa: 300 mg/L

## KTMMQSGGTFGTFMAIGMG [K58-G76]
S. aureus (ATCC 29213) [1]
  MBC value S. aureus: 300 mg/L
[2]
  MBC value P. aeruginosa: 300 mg/L

## MMQSGGTFGTFMAIGMGIRC [M60-C79]
S. aureus (ATCC 29213) [1]
  MBC value S. aureus: > 300 mg/L
[2]
  MBC value P. aeruginosa: > 300 mg/L

## GGIGKTMMQSGGTFGTFMAIGMGIR [G54-R78]
S. aureus (ATCC 29213) [1]
  MBC value S. aureus: 300 mg/L
[2]
  MBC value P. aeruginosa: 300 mg/L

B1: Romo1: reactive oxygen species modulator 1, chemically synthesized, dissolved in 75% trifluoroethanol (peptide, UniProt P60602 2-79, looked up)
Reactive oxygen species …: PVAVGPYGQSQPSCFDRVKMGFVMGCAVGMAAGALFGTFSCLRIGMRGRELMGGIGKTMMQSGGTFGTFMAIGMGIRC
GFP-expressing EIEC; 100 nM Romo1, flow cytometry
  GFP efflux: induced green fluorescent protein (GFP) efflux
EIEC
  bacterial growth: inhibited EIEC growth
